Literature values, collected in publication PMC9231011, “Irreversible Antagonists for the Adenosine A2B Receptor” (Molecules, 2022).

Tests used:
human A3AR = target: T1, human A3AR (Homo sapiens, UniProt P0DMS8); design: method as in PMID 19569717; settings: read-out: A3AR vs. Radioligand [3H]PSB-11 Ki; cited from earlier work
T1 construct: expressed in transfected cells; host or cells: FreeStyle CHO-S cells, pcDNA3.1(+), transient
T1 sequence (P0DMS8 1-318): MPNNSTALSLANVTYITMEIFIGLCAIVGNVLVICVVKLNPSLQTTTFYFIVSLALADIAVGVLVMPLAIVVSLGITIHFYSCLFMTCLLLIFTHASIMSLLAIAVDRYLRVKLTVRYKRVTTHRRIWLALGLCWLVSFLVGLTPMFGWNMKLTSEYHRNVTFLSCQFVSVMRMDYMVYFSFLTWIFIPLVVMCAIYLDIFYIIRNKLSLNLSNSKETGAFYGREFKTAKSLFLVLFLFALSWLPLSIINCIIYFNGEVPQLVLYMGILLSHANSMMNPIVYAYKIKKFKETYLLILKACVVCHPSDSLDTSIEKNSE

hA1 = target: hA1; design: method as in PMID 30835463, PMID 31646479; settings: Figure 1; cited from earlier work
hA2A = target: hA2A; design: method as in PMID 30835463, PMID 31646479; settings: Figure 1; cited from earlier work
human A1AR = target: T2, human A1AR (Homo sapiens, UniProt P30542); design: method as in PMID 19569717; settings: read-out: A1AR vs. Radioligand [3H]CCPA Ki; cited from earlier work
T2 construct: purchased Perkin Elmer ES-010-M400UA
T2 sequence (P30542 1-326): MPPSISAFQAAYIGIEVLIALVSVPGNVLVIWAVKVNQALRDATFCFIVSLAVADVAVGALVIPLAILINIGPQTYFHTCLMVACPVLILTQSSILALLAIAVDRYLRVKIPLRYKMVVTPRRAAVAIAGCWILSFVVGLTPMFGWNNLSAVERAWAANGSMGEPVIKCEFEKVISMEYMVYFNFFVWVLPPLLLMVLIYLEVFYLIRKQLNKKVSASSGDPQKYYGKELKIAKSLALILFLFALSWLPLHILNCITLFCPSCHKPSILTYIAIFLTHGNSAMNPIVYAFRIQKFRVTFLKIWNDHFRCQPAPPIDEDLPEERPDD

Question: Which results are given for `CCCn1c(=O)[nH]c2nc(-c3ccc(S(=O)(=O)O)cc3)[nH]c2c1=O` [PSB-1115, 1-propyl-8-(p-sulfophenyl)xanthine, reference compound]?
Answer: Ki (human A3AR): > 10 µM; Ki (hA1): > 10 µM; Ki (hA2A): 3.79 µM; Ki (human A1AR): > 10 µM
